Columns and labels:
pakchoi = experiment: Pot experiment under drought treatment, terrein seed soaking or spraying, pakchoi; format: in vivo
Procedure: (§1) An embodiment of effects of 2 μg/mL terrein formulation on the growth of four crops by seed soaking treatment under drought conditions is as follows. Terrein (purity 95%) is prepared as a solution with a concentration of 2 μg/mL in distilled water, and pakchoi, mung bean, sorghum, and wheat seeds are soaked in it for 6 hours, and the seeds are also soaked in distilled water as a blank control. Subsequently, the soaked crop seeds are sown into potted plants, and each of the treatment group is replicated five times. When the seedlings grew to about 10 cm, the drought treatment culture is carried out. The room temperature is 25° C., the humidity is 70%, 12 hours of light and 12 hours of darkness each day, and the light intensity is 80-100 μmol·m^−2·s^−1. During the period, the soil was kept in a dry state, and 200 mL is watered every week for 30 days, with a total of 800 mL. The drought culture conditions described below are all treated in the same way. After 30 days, the root length, seedling height, and fresh weight of pakchoi, mung bean, sorghum, and wheat are measured, and 10 seedlings are selected from each of the treatment groups, with a total of 50 plants (N=50), hereafter, they are dried in an oven and then measured dry weight. The growth rates of root length, seedling height, fresh weight, and dry weight of pakchoi, mung bean, sorghum, and wheat under 2 μg/mL compared to the blank control are first calculated, that is, An embodiment of effects of 10 μg/mL terrein formulation on the growth of four crops by seed soaking treatment under drought conditions is as follows. Terrein is prepared as a solution with a concentration of 10 μg/mL in distilled water, and pakchoi, mung bean, sorghum, and wheat seeds are soaked in it for 6 hours, and the seeds are also soaked in distilled water as a blank control. Subsequently, the soaked crop seeds are sown into potted plants. When the seedlings grew to about 10 cm, the drought treatment culture is carried out. After 30 days, the root length, seedling height, and fresh weight of pakchoi, mung bean, sorghum, and wheat are measured, hereafter, they are dried in an oven and then measured dry weight. An embodiment of effects of 2 μg/mL terrein formulation on the growth of four crops by spraying treatment under drought conditions is as follows. Seeds of four tested plants are soaked in distilled water and then sowing. Terrein is prepared as a solution with a concentration of 2 μg/mL in distilled water. When the potted pakchoi, mung bean, sorghum, and wheat grow to about 10 cm (15-20 days after sowing), spray them once, with an amount of about 3 mL, and distilled water sprayed used as blank control. Subsequently, the drought treatment culture is carried out. The room temperature is 25° C., the humidity is 70%, 12 hours of light and 12 hours of darkness each day, and the light intensity is 80-100 μmol·m^−2·s^−1. During the period, the soil was kept in a dry state, and 200 mL is watered every week for 30 days, with a total of 800 mL. After 30 days, the root length, seedling height, and fresh weight of pakchoi, mung bean, sorghum, and wheat are measured, hereafter, they are dried in an oven and then measured dry weight. An embodiment of effects of 10 μg/mL terrein formulation on the growth of four crops by spraying treatment under drought conditions is as follows. Seeds of four tested plants are soaked in distilled water and then sowing. Terrein is prepared as a solution with a concentration of 10 μg/mL in distilled water. When the potted pakchoi, mung bean, sorghum, and wheat grow to about 10 cm (15-20 days after sowing), spray them once, with an amount of about 3 mL, and distilled water sprayed used as blank control. Subsequently, the drought treatment is carried out. After 30 days, the root length, seedling height, and fresh weight of pakchoi, mung bean, sorghum, and wheat are measured, hereafter, they are dried in an oven and then measured dry weight. […]

wheat = experiment: Pot experiment under drought treatment, terrein seed soaking or spraying, wheat; format: in vivo
Procedure: as §1

[1] = 2 μg/mL terrein seed soaking treatment, drought, 30 days
[2] = 2 μg/mL terrein seed soaking, drought, 30 days
[3] = 2 μg/mL terrein seed soaking, drought, 30 days, p<0.05
[4] = 2 μg/mL terrein spraying at seedling stage
[5] = 2 μg/mL terrein spraying treatment, drought, 30 days
[6] = 2 μg/mL terrein spraying, drought, 30 days
[7] = 10 μg/mL terrein seed soaking treatment, drought, 30 days
[8] = 10 μg/mL terrein seed soaking, drought
[9] = 10 μg/mL terrein seed soaking, drought, 30 days
[10] = 10 μg/mL terrein spraying treatment, drought, 30 days
[11] = 10 μg/mL terrein spraying, drought
[12] = 10 μg/mL terrein spraying, drought, 30 days

## C/C=C/C1=CC(=O)[C@H](O)[C@H]1O [terrein]
pakchoi; 2 μg/mL terrein seed soaking
  effect on growth: significantly promote
pakchoi; [1]
  dry weight: 0.16 g
  fresh weight: 1.91 g
  root length: 15.46 cm
  seedling height: 11.45 cm
pakchoi; [2]
  growth rate of dry weight compared with the blank control: 32.47%
  growth rate of root length compared with the blank control: 76.63%
pakchoi; [3]
  effect on fresh weight compared with the blank control: not significant
  effect on seedling height compared with the blank control: not significant
pakchoi; [4]
  effect on growth: significant promoting effect
pakchoi; [5]
  dry weight: 0.13 g
  fresh weight: 1.75 g
  root length: 11.59 cm
  seedling height: 11.40 cm
pakchoi; [6]
  growth rate of root length compared with the blank control: 32.48%
pakchoi; [7]
  dry weight: 0.18 g
  fresh weight: 2.45 g
  root length: 17.43 cm
  seedling height: 12.21 cm
pakchoi; [8]
  effect on growth: significant promoting effect
pakchoi; [9]
  growth rate (promotion rate) of dry weight compared with the blank control: 49.12%
  growth rate (promotion rate) of fresh weight compared with the blank control: 40.34%
  growth rate (promotion rate) of root length compared with the blank control: 99.19%
  growth rate (promotion rate) of seedling height compared with the blank control: 15.66%
pakchoi; [10]
  dry weight: 0.14 g
  fresh weight: 1.85 g
  root length: 10.19 cm
  seedling height: 10.73 cm
pakchoi; [11]
  effect on growth: significant promoting effects
pakchoi; [12]
  growth rate of root length compared with the blank control: 16.45%
wheat; 2 μg/mL terrein seed soaking
  effect on growth: significantly promote
wheat; [1]
  dry weight: 0.26 g
  fresh weight: 1.10 g
  root length: 16.13 cm
  seedling height: 21.55 cm
wheat; [2]
  promotion rate of dry weight compared with the blank control: 21.99%
  promotion rate of fresh weight compared with the blank control: 52.30%
wheat; [4]
  effect on growth: significant promoting effect
wheat; [5]
  dry weight: 0.25 g
  fresh weight: 1.16 g
  root length: 17.02 cm
  seedling height: 18.93 cm
wheat; [6]
  growth rate of dry weight compared with the blank control: 16.29%
  growth rate of fresh weight compared with the blank control: 60.98%
wheat; [7]
  dry weight: 0.26 g
  fresh weight: 1.27 g
  root length: 18.96 cm
  seedling height: 20.25 cm
wheat; [8]
  effect on growth: significant promoting effect
wheat; [9]
  growth rate of dry weight compared with the blank control: 22.35%
  growth rate of fresh weight compared with the blank control: 76.39%
  growth rate of root length compared with the blank control: 25.09%
wheat; [10]
  dry weight: 0.29 g
  fresh weight: 1.42 g
  root length: 25.37 cm
  seedling height: 20.49 cm
wheat; [11]
  effect on growth: significant promoting effects
wheat; [12]
  growth rate (promotion rate) of dry weight compared with the blank control: 34.79%
  growth rate (promotion rate) of fresh weight compared with the blank control: 97.21%
  growth rate (promotion rate) of root length compared with the blank control: 67.40%

Source: patent US12232493B2, “Biopesticide formulation and treatment method thereof” (Xinjiang Institute of Ecology and Geography, Chinese …, priority 2023, dated 2025)
